Calls of active or inactive are those of the source. The calls are words filed in the database; no cut-off is given here. Where a SMILES comes first, the peptide text is derived from it. [ ]: non-standard residue; d: D form. NMeF = CN[C@@H](Cc1ccccc1)C(=O)O; Hica(2S) = CC(C)C[C@H](O)C(=O)O; βAla = NCCC(=O)O
Columns and labels:
HeLa [1] = assay: Induction of autophagy in human HeLa cells expressing GFP-LC3 assessed as increase in punctate structures at 10 nM measured after 24 hrs by fluorescence microscopic analysis; format: functional, cell-based
Ralstonia solanacearum = assay: Antibacterial activity against Ralstonia solanacearum assessed as reduction in microbial growth after 20 hrs by liquid microculture method; format: functional, organism-based
Staphylococcus aureus = assay: Antibacterial activity against Staphylococcus aureus FDA209P JC-1 assessed as reduction in microbial growth after 20 hrs by liquid microculture method; format: functional, organism-based
P388 = assay: Cytotoxicity against mouse P388 cells measure after 72 hrs by XTT assay; format: functional, cell-based
Candida albicans = assay: Antifungal activity against Candida albicans NBRC0197 assessed as reduction in microbial growth after 20 hrs by liquid microculture method; format: functional, organism-based
Kocuria rhizophila = assay: Antibacterial activity against Kocuria rhizophila ATCC9341 assessed as reduction in microbial growth after 20 hrs by liquid microculture method; format: functional, organism-based
[2] = tested on: Agrobacterium tumefaciens; assay: Antibacterial activity against Rhizobium radiobacter NBRC14554 assessed as reduction in microbial growth after 20 hrs by liquid microculture method; format: functional, organism-based
HeLa [3] = assay: Induction of autophagy in human HeLa cells expressing GFP-LC3 assessed as suppression of autolysosome formation at 10 nM measured after 24 hrs by fluorescence microscopic analysis; format: functional, cell-based
Trichophyton rubrum = assay: Antifungal activity against Trichophyton rubrum NBRC5467 assessed as reduction in microbial growth after 20 hrs by liquid microculture method; format: functional, organism-based

Structure (SMILES)	Activity (HeLa [1])	Activity (Ralstonia solanacearum)	Activity (Staphylococcus aureus)	Activity (P388)	Activity (Candida albicans)	Activity (Kocuria rhizophila)	Activity [2]	Activity (HeLa [3])	Activity (Trichophyton rubrum)
CC[C@H](C)[C@@H]1NC(=O)[C@H](CC(C)C)NC(=O)[C@H](Cc2ccccc2)NC(=O)[C@@H](Cc2ccccc2)NC(=O)[C@@H](Cc2ccccc2)NC1=O	inactive	inactive	inactive	inactive	inactive	inactive	inactive	inactive	inactive
CC[C@H](C)[C@@H]1NC(=O)[C@@H]2CCCN2C(=O)[C@H](CC(C)C)OC(=O)CCNC(=O)[C@H](Cc2ccccc2)N(C)C(=O)[C@H](Cc2ccccc2)N(C)C1=O (cyclo(I[NMeF][NMeF][βAla][Hica(2S)]P))	Active	inactive	inactive	inactive	inactive	inactive	inactive	Active	inactive
CC(C)C[C@@H]1OC(=O)CCNC(=O)[C@H](Cc2ccccc2)N(C)C(=O)[C@H](Cc2ccccc2)N(C)C(=O)[C@H](C(C)C)NC(=O)[C@@H]2CCCN2C1=O (cyclo([Hica(2S)]PV[NMeF][NMeF][βAla]))	inactive	inactive	inactive	inactive	inactive	inactive	inactive	inactive	inactive
